Where a name gives a salt, the structure may show the parent alone.
What follows are molecules tested against T1, human EP1 receptor (Homo sapiens, UniProt P34995) (assay: Binding assay for the human prostanoid EP1 receptor (radioligand competition)). Settings: CHO-K1 membranes; [3H]-PGE2 for Examples 1-17, 19, 33, 34, 60 and 61, 3-{2-[5-Bromo-2-(2,4-difluorobenzyloxy)-phenyl]-5-methyl-pyrrol-1-yl}-6-[3H3-methoxy]methoxy-benzoic acid for the remaining; averages of a number of experiments; read-out: pIC50 value (binding assay for the human prostanoid EP1 receptor) (converted).
T1 sequence (P34995 1-402): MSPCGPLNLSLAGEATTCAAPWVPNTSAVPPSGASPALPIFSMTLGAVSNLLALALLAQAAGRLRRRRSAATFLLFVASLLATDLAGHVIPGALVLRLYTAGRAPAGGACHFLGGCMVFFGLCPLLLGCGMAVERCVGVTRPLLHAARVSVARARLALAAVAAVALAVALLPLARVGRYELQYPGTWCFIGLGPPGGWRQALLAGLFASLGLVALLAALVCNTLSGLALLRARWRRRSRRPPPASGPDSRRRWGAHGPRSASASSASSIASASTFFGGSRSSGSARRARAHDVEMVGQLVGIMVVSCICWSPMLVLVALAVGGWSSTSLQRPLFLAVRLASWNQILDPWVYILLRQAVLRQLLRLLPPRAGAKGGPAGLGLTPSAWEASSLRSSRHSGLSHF
Design: expressed in transfected cells; host or cells: CHO-K1 (membranes)
Summary of the method: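 Membranes from CHO-K1 cells stably expressing human EP1, in pH 6 MES buffer with 10 mM MgCl2. Competition with [3H]-PGE2 (3 nM final) for 30 min at 30 °C, or alternatively with a tritiated benzoic-acid ligand (0.2 nM final) for 45 min at 37 °C; filtration and scintillation counting, IC50 by non-linear fitting.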

Compound	IC50
CC(C)c1cc2cc(Cl)cc(Cc3ccc(C(=O)O)o3)c2o1 [Example 1, 5-{[5-Chloro-2-(1-methylethyl)-1-benzofuran-7-yl]methyl}-2-furancarboxylic Acid]	≤ 100 nM
Cc1cc(C(=O)O)nn1Cc1cc(Cl)cc2cc(C(C)C)oc12 [Example 3, 1-{[5-Chloro-2-(1-methylethyl)-1-benzofuran-7-yl]methyl}-5-methyl-1H-pyrazole-3-carboxylic Acid]	≤ 100 nM
CCNCc1ccc(NC(=O)c2cc(C)n(Cc3cc(Cl)cc4cc(C(C)C)oc34)n2)cc1 [Example 15, 1-{[5-Chloro-2-(1-methylethyl)-1-benzofuran-7-yl]methyl}-N-{4-[(ethylamino)methyl]phenyl}-5-methyl-1H-pyrazole-3-carboxamide hydrochloride]	≤ 100 nM
Cc1cc(C(=O)Nc2ccc(CN3CCC(O)CC3)cc2)nn1Cc1cc(Cl)cc2cc(C(C)C)oc12 [Example 16, 1-{[5-Chloro-2-(1-methylethyl)-1-benzofuran-7-yl]methyl}-N-{4-[(4-hydroxy-1-piperidinyl)methyl]phenyl}-5-methyl-1H-pyrazole-3-carboxamide hydrochloride]	≤ 100 nM

Other lines, results leading:

IC50	Compound
≤ 100 nM	Cc1cc(C(=O)Nc2ccc(CN3CC[C@@H](O)C3)cc2)nn1Cc1cc(Cl)cc2cc(C(C)C)oc12 [Example 17, 1-{[5-Chloro-2-(1-methylethyl)-1-benzofuran-7-yl]methyl}-N-(4-{[(3R)-3-hydroxy-1-pyrrolidinyl]methyl}phenyl)-5-methyl-1H-pyrazole-3-carboxamide hydrochloride]
≤ 100 nM	Cc1cc(C(=O)NN2CCOCC2)nn1Cc1cc(Cl)cc2cc(C3CCCCC3)oc12 [Example 28, 1-[(5-Chloro-2-cyclohexyl-1-benzofuran-7-yl)methyl]-5-methyl-N-4-morpholinyl-1H-pyrazole-3-carboxamide]

— US20090099169A1, “Benzofuran Compounds As EP1 Receptor Antagonists” (GLAXO GROUP LIMITED, priority 2006, published 2009)
